PMC8112869, “Therapeutic inhibition of keratinocyte TRPV3 sensory channel by local anesthetic dyclonine” (eLife, 2021)

Assays:
[1] = target: T1, TRPA1 (Mus musculus, UniProt Q8BLA8); assay: Whole-cell recording of AITC-activated TRPA1 in HEK 293T cells; type: cell-based
T1 construct: expressed in transfected cells; host or cells: HEK 293T
Text: (§1) The WT mouse TRPV3 (mTRPV3), human TRPV3 (hTRPV3), rat TRPV1, rat TRPV2, rat TRPM8, and mouse TRPA1 cDNAs were generously provided by Dr. Feng Qin (State University of New York at Buffalo, Buffalo, USA). The GFP-mTRPV3 WT and the mutants (mTRPV3-G573S and mTRPV3-G573C) in pcDNA4/TO vector were gifts from Dr. Michael X Zhu (The University of Texas Health Science Center at Houston, Houston, USA). The WT fTRPV3 was kindly provided by Dr. Makoto Tominaga (Department of Physiological Sciences, SOKENDAI, Okazaki, Japan). All mutations were made using the overlap-extension polymerase chain reaction method as previously described ([Tian et al., 2019]). The resulting mutations were then verified by DNA sequencing. […]
(§2) Conventional whole-cell and excised patch-clamp recording methods were used. […] For a subset of recordings, currents were amplified using an Axopatch 200B amplifier (Molecular Devices, Sunnyvale, CA) and recorded through a BNC-2090/MIO acquisition system (National Instruments, Austin, TX) using QStudio developed by Dr. Feng Qin at State University of New York at Buffalo. […] As determined by the conductance tests, the solution around a patch under study was fully controlled by the application of a flow rate of 100 μl/min or greater. […]

[2] = target: T2, human TRPV3 (hTRPV3) (Homo sapiens, UniProt Q8NET8); assay: Whole-cell recording of 2-APB-evoked currents in hTRPV3-expressing HEK 293T cells; type: cell-based
T2 construct: expressed in transfected cells; host or cells: HEK 293T
T2 sequence (Q8NET8 whole entry): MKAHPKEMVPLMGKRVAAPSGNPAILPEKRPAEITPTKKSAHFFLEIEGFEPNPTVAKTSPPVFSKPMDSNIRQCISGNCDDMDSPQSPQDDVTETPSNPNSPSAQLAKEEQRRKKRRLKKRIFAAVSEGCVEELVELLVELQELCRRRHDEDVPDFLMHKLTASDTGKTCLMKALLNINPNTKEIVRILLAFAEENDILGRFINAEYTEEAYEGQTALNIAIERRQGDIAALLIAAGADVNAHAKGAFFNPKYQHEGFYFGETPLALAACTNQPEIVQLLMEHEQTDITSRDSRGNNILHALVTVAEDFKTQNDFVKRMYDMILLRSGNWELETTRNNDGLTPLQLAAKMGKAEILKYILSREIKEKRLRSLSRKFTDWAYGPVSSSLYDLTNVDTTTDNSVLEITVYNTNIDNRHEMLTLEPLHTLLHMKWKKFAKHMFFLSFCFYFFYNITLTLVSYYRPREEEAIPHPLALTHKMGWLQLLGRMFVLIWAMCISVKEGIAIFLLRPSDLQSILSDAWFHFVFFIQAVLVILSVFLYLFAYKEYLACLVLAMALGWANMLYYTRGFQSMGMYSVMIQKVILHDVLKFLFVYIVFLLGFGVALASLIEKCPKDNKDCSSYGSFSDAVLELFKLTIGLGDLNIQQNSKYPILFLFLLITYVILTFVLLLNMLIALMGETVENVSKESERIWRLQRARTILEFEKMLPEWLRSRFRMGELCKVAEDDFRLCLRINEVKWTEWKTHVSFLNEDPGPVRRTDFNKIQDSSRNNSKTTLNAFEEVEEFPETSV
Text: as §1, §2

[3] = tested on: TRPV3+/+ and TRPV3-/- mice; assay: Hot plate (55°C) paw withdrawal latency, Hargreaves test; type: in vivo, mouse
Procedure: All tests were conducted during the light phase of the light/dark cycle by a trained observer blind to the genotype. Mice were habituated to the testing room for 60 min prior to the behavioral tests unless otherwise stated. Hargreaves test was performed as described previously ([Wang et al., 2018]). All behavioral experiments were conducted in a double-blind manner. For measurement of thermal hyperalgesia, animals were placed individually, 30 min after injection, on a hot plate (Bioseb, Chaville, France) with the temperature adjusted to 55°C. The withdrawal latency of each hind paw was determined until nocifensive reaction appeared (licking foot). Right hind paws of mice were injected intraplantarly with 10 μl normal saline (0.9% NaCl). Left hind paws of mice were injected intraplantarly with 10 μl normal saline (supplemented with 10 or 50 μM dyclonine).

[4] = target: T3, TRPV3 L655A (Mus musculus, UniProt Q8K424, L655A); assay: Whole-cell recording of TRPV3 mutant L655A in HEK 293T cells; type: cell-based; settings: 2-APB (1 mM)-evoked, –60 mV, read-out: IC50 for inhibition of TRPV3 mutant
T3 construct: expressed in transfected cells; host or cells: HEK 293T
T3 sequence (Q8K424 whole entry L655A): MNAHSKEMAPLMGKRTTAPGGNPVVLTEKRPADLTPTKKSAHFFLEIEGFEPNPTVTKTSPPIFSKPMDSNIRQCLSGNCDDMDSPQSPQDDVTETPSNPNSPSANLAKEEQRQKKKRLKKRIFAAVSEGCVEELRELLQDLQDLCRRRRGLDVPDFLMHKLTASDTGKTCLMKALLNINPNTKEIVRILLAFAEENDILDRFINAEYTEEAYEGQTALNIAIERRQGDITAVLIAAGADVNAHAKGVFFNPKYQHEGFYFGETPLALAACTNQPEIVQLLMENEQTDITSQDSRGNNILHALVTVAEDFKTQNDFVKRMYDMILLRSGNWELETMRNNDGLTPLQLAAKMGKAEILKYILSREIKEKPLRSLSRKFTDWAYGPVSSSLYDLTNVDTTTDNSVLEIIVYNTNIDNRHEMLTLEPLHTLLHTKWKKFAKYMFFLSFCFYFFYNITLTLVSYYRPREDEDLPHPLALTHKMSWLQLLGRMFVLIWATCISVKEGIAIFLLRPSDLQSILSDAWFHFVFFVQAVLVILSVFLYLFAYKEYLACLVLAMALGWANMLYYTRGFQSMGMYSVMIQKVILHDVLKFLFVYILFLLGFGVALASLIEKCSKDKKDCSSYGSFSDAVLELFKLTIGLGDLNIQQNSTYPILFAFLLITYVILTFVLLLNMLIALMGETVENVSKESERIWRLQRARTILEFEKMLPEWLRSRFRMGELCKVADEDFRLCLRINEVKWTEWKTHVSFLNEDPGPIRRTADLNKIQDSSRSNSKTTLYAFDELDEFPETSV
Text: as §1, §2

T1 sequence (Q8BLA8 whole entry): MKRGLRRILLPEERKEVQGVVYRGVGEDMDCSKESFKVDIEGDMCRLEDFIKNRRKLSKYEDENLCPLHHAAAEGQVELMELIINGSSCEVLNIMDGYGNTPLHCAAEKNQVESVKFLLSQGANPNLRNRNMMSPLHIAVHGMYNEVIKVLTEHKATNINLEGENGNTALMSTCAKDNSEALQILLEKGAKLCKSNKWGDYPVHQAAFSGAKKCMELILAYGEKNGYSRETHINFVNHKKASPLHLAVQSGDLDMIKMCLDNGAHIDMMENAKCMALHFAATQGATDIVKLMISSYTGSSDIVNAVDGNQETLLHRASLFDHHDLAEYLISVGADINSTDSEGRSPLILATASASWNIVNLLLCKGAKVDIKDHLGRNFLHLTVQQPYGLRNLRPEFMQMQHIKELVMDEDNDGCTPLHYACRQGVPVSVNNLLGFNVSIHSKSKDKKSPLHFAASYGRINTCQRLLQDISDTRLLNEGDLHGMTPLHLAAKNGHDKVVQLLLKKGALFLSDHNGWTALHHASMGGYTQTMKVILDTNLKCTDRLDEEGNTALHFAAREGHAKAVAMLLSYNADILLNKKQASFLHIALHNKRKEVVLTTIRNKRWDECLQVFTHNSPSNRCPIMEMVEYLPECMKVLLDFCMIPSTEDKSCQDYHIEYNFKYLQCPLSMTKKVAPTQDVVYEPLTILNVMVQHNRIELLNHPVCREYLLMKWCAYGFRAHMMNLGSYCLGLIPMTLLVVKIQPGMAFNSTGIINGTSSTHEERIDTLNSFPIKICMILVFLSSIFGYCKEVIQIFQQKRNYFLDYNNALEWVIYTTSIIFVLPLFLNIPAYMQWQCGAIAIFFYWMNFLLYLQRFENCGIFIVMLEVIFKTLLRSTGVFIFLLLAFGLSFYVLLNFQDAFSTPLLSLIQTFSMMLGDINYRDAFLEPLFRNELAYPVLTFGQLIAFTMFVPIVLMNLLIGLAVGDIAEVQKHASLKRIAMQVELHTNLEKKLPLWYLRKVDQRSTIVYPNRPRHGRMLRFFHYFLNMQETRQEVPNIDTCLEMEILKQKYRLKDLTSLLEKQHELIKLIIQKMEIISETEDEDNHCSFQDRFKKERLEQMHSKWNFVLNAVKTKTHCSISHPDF

- Hill coefficient nH [1]: 1.3 ± 0.15
- reduction in current amplitude ([1]; 10 μM dyclonine, AITC-activated): 5% ± 1%
- Hill coefficient nH [2]: 1.91 ± 0.14
- IC50 ([2]; 2-APB (100 μM)-evoked, –60 mV, read-out: IC50 on blocking of hTRPV3): 16.2 ± 0.72 µM
- IC50 [4]: 287 ± 10.4 µM
SMILES: CCCCOc1ccc(C(=O)CCN2CCCCC2)cc1 [dyclonine]
- paw withdrawal latencies (PWL) ([3]; TRPV3+/+ mice, intraplantar 10 μM dyclonine): 18.08 ± 0.03 s
- paw withdrawal latencies (PWL) ([3]; TRPV3+/+ mice, intraplantar 50 μM dyclonine): 18.82 ± 0.42 s
- paw withdrawal latencies (PWL) ([3]; TRPV3-/- mice, intraplantar 10 μM dyclonine): 18.23 ± 0.52 s
- paw withdrawal latencies (PWL) ([3]; TRPV3-/- mice, intraplantar 50 μM dyclonine): 18.61 ± 0.46 s
